Biological target: SIRT6 enzyme (Homo sapiens, UniProt Q8N6T7)
Test: Measurement of deacetylation activity (SIRT6, AlphaLISA, H3K9(Ac) peptide)
Format: biochemical
Conditions: SIRT6 25 ng/mL, H3K9(Ac) biotin peptide 2 nM, NAD 10 μM, room temperature 30 minutes, duplicate
Procedure, shortened: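 Activation read as EC150, the concentration giving 150% activity relative to enzyme/no-enzyme DMSO controls, via variable-slope fit. Deacetylation of 2 nM biotinylated H3K9(Ac) peptide with 10 μM NAD+ by 25 ng/mL SIRT6 ran 30 min at room temperature, pH 8.0, then AlphaLISA detection of unmodified H3K9.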

Sequence of SIRT6 enzyme (Q8N6T7 whole entry, species assumed): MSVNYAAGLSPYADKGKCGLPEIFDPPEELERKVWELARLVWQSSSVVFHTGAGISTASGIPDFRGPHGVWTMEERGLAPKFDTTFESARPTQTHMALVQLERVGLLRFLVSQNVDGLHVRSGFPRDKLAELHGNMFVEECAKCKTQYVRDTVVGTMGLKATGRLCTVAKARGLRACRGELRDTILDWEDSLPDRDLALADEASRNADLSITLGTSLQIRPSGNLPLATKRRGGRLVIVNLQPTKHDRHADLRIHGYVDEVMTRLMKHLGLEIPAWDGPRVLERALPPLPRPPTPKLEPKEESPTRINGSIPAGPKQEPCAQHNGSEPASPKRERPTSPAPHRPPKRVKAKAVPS

SMILES	EC150 (the concentration of the compound showing a relative enzyme activity of 150%) [μm]
COc1ccc2oc(N3[C@@H]4COC[C@H]3c3sc(NC(=O)N[C@H]5CCOC5)nc3C4)nc2c1 [Example 151, N-[(4S,8S)-10-(5-methoxy-1,3-benzoxazol-2-yl)-4,7,8,9-tetrahydro-5H-4,8-epiminooxocino[5,4-d][1,3]thiazol-2-yl]-N′-[(3S)-oxolan-3-yl]urea]	0.78
CCOC(=O)N1CC2Cc3nc(NC(=O)NC)sc3C(C1)N2c1nc(C2(C(F)(F)F)CC2)no1 (stereo not drawn) [Example 134, Ethyl 2-[(methylcarbamoyl)amino]-10-{3-[1-(trifluoromethyl)cyclopropyl]-1,2,4-oxadiazol-5-yl}-4,7,8,9-tetrahydro-4,8-epimino[1,3]thiazolo[5,4-d]azocine-6(5H)-carboxylate]	3.5
CS(=O)(=O)N1CC2Cc3nc(NC(=O)NC4CCOCC4)sc3C(C1)N2c1nc(-c2ccc(F)cc2)no1 (stereo not drawn) [Example 30, N-{10-[3-(4-fluorophenyl)-1,2,4-oxadiazol-5-yl]-6-(methanesulfonyl)-4,5,6,7,8,9-hexahydro-4,8-epimino[1,3]thiazolo[5,4-d]azocin-2-yl}-N′-oxan-4-ylurea]	0.18
C[C@H](CO)NC(=O)Nc1nc2c(s1)[C@@H]1COC[C@H](C2)N1c1cc(-c2ccc(F)cc2)on1 [Example 154, N-{(4S,8S)-10-[5-(4-fluorophenyl)-1,2-oxazol-3-yl]-4,7,8,9-tetrahydro-5H-4,8-epiminooxocino[5,4-d][1,3]thiazol-2-yl}-N′-[(2R)-1-hydroxypropan-2-yl]urea]	0.82
COc1ccc(-c2noc(N3CCc4nc(NC(=O)NC5CCOCC5)sc4C3)n2)cc1 [Example 107, N-{5-[3-(4-methoxyphenyl)-1,2,4-oxadiazol-5-yl]-4,5,6,7-tetrahydro[1,3]thiazolo[5,4-c]pyridin-2-yl}-N′-oxan-4-ylurea]	2.3
CNC(=O)Nc1nc2c(s1)[C@@H]1COC[C@H](C2)N1c1nnc(-c2cccc(C(C)C)c2)o1 [Example 119, N-methyl-N′-[(4S,8S)-10-{5-[3-(propan-2-yl)phenyl]-1,3,4-oxadiazol-2-yl}-4,7,8,9-tetrahydro-5H-4,8-epiminooxocino[5,4-d][1,3]thiazol-2-yl]urea]	2.2
CC(=O)N1CC2Cc3nc(NC(=O)NC(C)C)sc3C(C1)N2c1nc(-c2ccc(F)cc2)no1 (stereo not drawn) [Example 137, N-{6-acetyl-10-[3-(4-fluorophenyl)-1,2,4-oxadiazol-5-yl]-4,5,6,7,8,9-hexahydro-4,8-epimino[1,3]thiazolo[5,4-d]azocin-2-yl}-N′-propan-2-ylurea]	0.36
CCO[C@H](C)c1nnc(N2CCc3nc(NC(=O)NC)sc3C2)o1 [Example 3, N-(5-{5-[(1R)-1-ethoxyethyl]-1,3,4-oxadiazol-2-yl}-4,5,6,7-tetrahydro[1,3]thiazolo[5,4-c]pyridin-2-yl)-N′-methylurea]	3.4
CNC(=O)Nc1nc2c(s1)C1COCC(C2)N1c1nc([C@H]2CC[C@@H](C(F)(F)F)CC2)no1 (stereo partly drawn) [Example 6, N-methyl-N′-(10-{3-[(1s,4s)-4-(trifluoromethyl)cyclohexyl]-1,2,4-oxadiazol-5-yl}-4,7,8,9-tetrahydro-5H-4,8-epiminooxocino[5,4-d][1,3]thiazol-2-yl)urea]	4.5
CNC(=O)Nc1nc2c(s1)C1CN(C(C)=O)CC(C2)N1c1ncc(-c2cccc(OC)n2)o1 (stereo not drawn) [Example 129, N-{6-acetyl-10-[5-(6-methoxypyridin-2-yl)-1,3-oxazol-2-yl]-4,5,6,7,8,9-hexahydro-4,8-epimino[1,3]thiazolo[5,4-d]azocin-2-yl}-N′-methylurea]	0.38
O=C(Nc1nc2c(s1)[C@@H]1COC[C@H](C2)N1c1ncc(-c2cccc(OC(F)F)n2)o1)NC1(CO)CC1 [Example 181, N-[(4S,8S)-10-{5-[6-(difluoromethoxy)pyridin-2-yl]-1,3-oxazol-2-yl}-4,7,8,9-tetrahydro-5H-4,8-epiminooxocino[5,4-d][1,3]thiazol-2-yl]-N′-[1-(hydroxymethyl)cyclopropyl]urea]	0.53
CC(C)(O)CNC(=O)Nc1nc2c(s1)[C@@H]1COC[C@H](C2)N1c1nc2cc(C(F)(F)F)ccc2o1 [Example 144, N-(2-hydroxy-2-methylpropyl)-N′-{(4S,8S)-10-[5-(trifluoromethyl)-1,3-benzoxazol-2-yl]-4,7,8,9-tetrahydro-5H-4,8-epiminooxocino[5,4-d][1,3]thiazol-2-yl}urea]	0.61
O=C(Nc1nc2c(s1)CN(c1nccc(C3CCCOC3)n1)CC2)N[C@H]1C[C@H](O)C1 (stereo partly drawn) [Example 192, N-[(1r,3r)-3-hydroxycyclobutyl]-N′-{5-[4-(oxan-3-yl)pyrimidin-2-yl]-4,5,6,7-tetrahydro[1,3]thiazolo[5,4-c]pyridin-2-yl}urea]	0.44
CC(C)(O)CNC(=O)Nc1nc2c(s1)[C@@H]1COC[C@H](C2)N1c1nc2cc(C#N)c(F)cc2o1 [Example 55, N-[(4S,8S)-10-(5-cyano-6-fluoro-1,3-benzoxazol-2-yl)-4,7,8,9-tetrahydro-5H-4,8-epiminooxocino[5,4-d][1,3]thiazol-2-yl]-N′-(2-hydroxy-2-methylpropyl)urea]	2.3
CNC(=O)Nc1nc2c(s1)CN(c1nc(C3CCC(F)(F)CC3)no1)CC2 [Example 1, N-{5-[3-(4,4-difluorocyclohexyl)-1,2,4-oxadiazol-5-yl]-4,5,6,7-tetrahydro[1,3]thiazolo[5,4-c]pyridin-2-yl}-N′-methylurea]	1.7
O=C(Nc1nc2c(s1)[C@@H]1COC[C@H](C2)N1c1ncc(-c2cccc(OC(F)F)n2)o1)N[C@H]1CC[C@H](O)CC1 [Example 176, N-[(4S,8S)-10-{5-[6-(difluoromethoxy)pyridin-2-yl]-1,3-oxazol-2-yl}-4,7,8,9-tetrahydro-5H-4,8-epiminooxocino[5,4-d][1,3]thiazol-2-yl]-N′-[(1r,4r)-4-hydroxycyclohexyl]urea]	0.33
COc1cccc(-c2cc(N3[C@@H]4COC[C@H]3c3sc(NC(=O)N[C@H]5CCOC5)nc3C4)no2)n1 [Example 162, N-{(4S,8S)-10-[5-(6-methoxypyridin-2-yl)-1,2-oxazol-3-yl]-4,7,8,9-tetrahydro-5H-4,8-epiminooxocino[5,4-d][1,3]thiazol-2-yl}-N′-[(3S)-oxolan-3-yl]urea]	3.3
C[C@H](CO)NC(=O)Nc1nc2c(s1)[C@@H]1COC[C@H](C2)N1c1ncc(-c2cccc(OC(F)F)n2)o1 [Example 66, N-[(4S,8S)-10-{5-[6-(difluoromethoxy)pyridin-2-yl]-1,3-oxazol-2-yl}-4,7,8,9-tetrahydro-5H-4,8-epiminooxocino[5,4-d][1,3]thiazol-2-yl]-N′-[(2R)-1-hydroxypropan-2-yl]urea]	0.39

From US11981686B2, “Urea compound having substituent” (DAIICHI SANKYO COMPANY, LIMITED, priority 2019, dated 2024)
